Test results from patent US20230293517A1, “ANTAGONIST COMPOUNDS” (AdoRx Therapeutics Limited, priority 2020, published 2023).

Key:
[1] = molecular target: human Adenosine A3 receptor (Homo sapiens (Human), UniProt P0DMS8); assay: Adenosine receptor TR-FRET binding assay (A3); settings: inhibition of binding of 100 nM CA200645, CHO cell membranes
Method: Biological Example 1—Adenosine Receptor Time-Resolved Fluorescence Resonance Energy Transfer (TRFRET) Binding Assay
All FRET binding experiments were conducted at room temperature in white 384-well plates, in assay binding buffer containing 1×LabMed (Cisbio, France), 100 μg/mL saponin, 1% DMSO and 0.02% pluronic acid. Binding of the fluorescently labelled Adenosine receptor antagonist XAC (CA200645, FRET acceptor) to terbium-labelled A1, A2a, A2b and A3 adenosine receptors (FRET donors) was detected by time-resolved FRET due to the close proximity of the donor and acceptor in a binding event. To investigate the ability of unlabelled test compounds to bind to Adenosine A1, A2a, A2b and A3 receptors, dose response curves were constructed that determined the ability of a range of concentrations to inhibit the binding of 30 nM CA200645 to the A2b receptor and 100 nM CA200645 to the A1, A2a, and A3 receptor.
Serial dilution (1:3 dilutions) of test compounds in neat DMSO and transfer of a 400 nL sample of test compound into the assay plate was carried out using the Mosquito (TTP Labtech, UK). The compound samples were incubated for 2 hours at room temperature with a fixed concentration of CA200645 defined for each receptor (see above) and CHO cell membranes containing the human Adenosine A1 (0.5 μg/well), A2a (0.3 μg/well), A2b (1 μg/well) or A3 (1 μg/well) receptor in 40 μL of assay buffer. Total and non-specific binding of CA200645 was determined in the absence and presence of 10 μM XAC, respectively. Following 2 hours incubation, the level of CA200645 binding was detected on a Pherastar FSX (BMG Labtech, Germany) using standard TR-FRET settings. The terbium donor was excited with three laser flashes at a wavelength of 337 nm, and donor and acceptor emission was detected at 620 nm and 665 nm wavelengths, respectively. FRET ratios were obtained by multiplying the acceptor/donor ratio value by 10,000. Specific binding was determined by subtracting the non-specific binding FRET ratio from the total binding FRET ratio. Compound IC50 curves were analysed using GraphPad Prism 7.0 (GraphPad, USA) and Ki affinity values were determined from the obtained IC50 values using the method of Cheng and Prusoff.

[2] = molecular target: human Adenosine A1 receptor (Homo sapiens (Human), UniProt P30542); assay: Adenosine receptor TR-FRET binding assay (A1); settings: inhibition of binding of 100 nM CA200645, CHO cell membranes
In short: (§1)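 CHO membranes, Tb-labelled hA1/hA2a/hA2b/hA3; tracer CA200645 at 100 nM (A1, A2a, A3) or 30 nM (A2b); buffer with saponin, 1% DMSO, pluronic; 2 h RT. NSB with 10 μM XAC. Read TR-FRET (ex 337, em 620/665 nm); IC50 → Ki via Cheng–Prusoff.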

[3] = molecular target: human Adenosine A2a receptor (Homo sapiens (Human), UniProt P29274); assay: Adenosine receptor TR-FRET binding assay (A2a); settings: inhibition of binding of 100 nM CA200645, CHO cell membranes
In short: as §1

[4] = molecular target: human Adenosine A2b receptor (Homo sapiens (Human), UniProt P29275); assay: Adenosine receptor TR-FRET binding assay (A2b); settings: TR-FRET, inhibition of binding of 30 nM CA200645, CHO cell membranes
In short: as §1

human Adenosine A2b receptor, sequence (P29275 whole entry): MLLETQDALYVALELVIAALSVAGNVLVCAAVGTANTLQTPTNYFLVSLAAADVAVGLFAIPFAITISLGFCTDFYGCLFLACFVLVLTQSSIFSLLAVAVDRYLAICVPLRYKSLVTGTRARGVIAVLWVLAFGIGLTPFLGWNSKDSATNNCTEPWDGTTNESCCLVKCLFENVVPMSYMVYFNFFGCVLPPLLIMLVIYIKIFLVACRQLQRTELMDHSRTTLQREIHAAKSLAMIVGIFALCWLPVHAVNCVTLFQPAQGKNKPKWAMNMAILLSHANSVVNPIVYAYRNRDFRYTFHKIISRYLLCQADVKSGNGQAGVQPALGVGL
human Adenosine A1 receptor, sequence (P30542 whole entry): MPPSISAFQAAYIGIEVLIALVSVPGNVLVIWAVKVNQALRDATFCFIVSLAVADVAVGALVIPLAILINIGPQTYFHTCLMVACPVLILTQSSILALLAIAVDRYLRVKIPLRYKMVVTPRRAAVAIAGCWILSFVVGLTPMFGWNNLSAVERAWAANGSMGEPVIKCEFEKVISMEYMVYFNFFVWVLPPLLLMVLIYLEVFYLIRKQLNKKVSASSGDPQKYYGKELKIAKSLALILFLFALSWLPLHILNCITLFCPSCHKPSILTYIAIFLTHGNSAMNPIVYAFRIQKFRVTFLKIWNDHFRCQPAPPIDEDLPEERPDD
human Adenosine A3 receptor, sequence (P0DMS8 whole entry): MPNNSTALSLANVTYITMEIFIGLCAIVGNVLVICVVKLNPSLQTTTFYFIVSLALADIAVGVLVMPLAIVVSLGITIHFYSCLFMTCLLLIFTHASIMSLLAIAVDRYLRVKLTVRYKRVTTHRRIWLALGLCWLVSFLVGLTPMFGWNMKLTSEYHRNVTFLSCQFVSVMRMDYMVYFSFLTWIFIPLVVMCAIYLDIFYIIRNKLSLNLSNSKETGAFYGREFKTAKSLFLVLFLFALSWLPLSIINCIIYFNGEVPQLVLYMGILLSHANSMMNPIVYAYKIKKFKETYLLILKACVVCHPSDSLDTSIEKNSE
human Adenosine A2a receptor, sequence (P29274 whole entry): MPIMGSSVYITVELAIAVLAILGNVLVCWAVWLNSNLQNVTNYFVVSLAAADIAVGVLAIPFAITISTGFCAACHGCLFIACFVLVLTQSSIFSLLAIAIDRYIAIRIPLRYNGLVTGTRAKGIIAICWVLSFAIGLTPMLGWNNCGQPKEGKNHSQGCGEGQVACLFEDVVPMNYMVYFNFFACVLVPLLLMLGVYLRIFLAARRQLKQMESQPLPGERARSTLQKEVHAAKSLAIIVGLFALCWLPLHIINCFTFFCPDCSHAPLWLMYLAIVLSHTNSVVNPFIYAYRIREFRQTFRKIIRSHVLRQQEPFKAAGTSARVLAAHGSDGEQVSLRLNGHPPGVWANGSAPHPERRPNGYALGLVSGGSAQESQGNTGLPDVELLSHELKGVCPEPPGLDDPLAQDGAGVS

Cc1cc(-c2sc(NC(=O)N3CCC(c4ncno4)CC3)nc2-c2cccc(C#N)c2)cc(C)n1 [Example 6.31, N-[4-(3-Cyanophenyl)-5-(2,6-dimethyl-4-pyridyl)thiazol-2-yl]-4-(1,2,4-oxadiazol-5-yl)piperidine-1-carboxamide]
Ki [1]: 186 nM
Ki [2]: 19 nM
Ki [3]: 1.5 nM
Ki [4]: 2.1 nM

Cc1cc(-c2sc(NC(=O)N3CCC(C(=O)NCCO)CC3)nc2-c2cccc(C#N)c2)cc(C)n1 [Example 6.33, N1-[4-(3-Cyanophenyl)-5-(2,6-dimethyl-4-pyridyl)thiazol-2-yl]-N4-(2-hydroxyethyl)piperidine-1,4-dicarboxamide]
Ki [1]: 268 nM
Ki [2]: 51 nM
Ki [3]: 3.65 nM
Ki [4]: 3.6 nM

Cc1cc(-c2sc(NC(=O)N3CC4(CCOC(=O)N4)C3)nc2-c2cccc(C#N)c2)cc(C)n1 [Example 6.34, N-[4-(3-Cyanophenyl)-5-(2,6-dimethyl-4-pyridyl)thiazol-2-yl]-6-oxo-7-oxa-2,5-diazaspiro[3.5]nonane-2-carboxamide]
Ki [1]: 166 nM
Ki [2]: 26 nM
Ki [3]: 0.64 nM
Ki [4]: 2.1 nM

Cc1cc(-c2sc(NC(=O)N3CCN4C(=O)CNC(=O)C4C3)nc2-c2cccc(C#N)c2)cc(C)n1 (stereo not shown) [Example 6.35, N-[4-(3-Cyanophenyl)-5-(2,6-dimethyl-4-pyridyl)thiazol-2-yl]-6,9-dioxo-1,3,4,7,8,9a-hexahydropyrazino[1,2-a]pyrazine-2-carboxamide]
Ki [1]: 303 nM
Ki [2]: 243 nM
Ki [3]: 9.58 nM
Ki [4]: 20.9 nM

Cc1cc(-c2sc(NC(=O)N3CCN4C(=O)COCC4C3)nc2-c2cccc(C#N)c2)cc(C)n1 (stereo not shown) [Example 6.37, N-[4-(3-Cyanophenyl)-5-(2,6-dimethyl-4-pyridyl)thiazol-2-yl]-4-oxo-6,7,9,9a-tetrahydro-1H-pyrazino[2,1-c][1,4]oxazine-8-carboxamide]
Ki [1]: 356 nM
Ki [2]: 91 nM
Ki [3]: 1.82 nM
Ki [4]: 10.1 nM

Cc1cc(-c2sc(NC(=O)N3CCN4C(=O)CN(C)C(=O)C4C3)nc2-c2cccc(C#N)c2)cc(C)n1 (stereo not shown) [Example 6.39, N-[4-(3-Cyanophenyl)-5-(2,6-dimethyl-4-pyridyl)thiazol-2-yl]-8-methyl-6,9-dioxo-3,4,7,9a-tetrahydro-1H-pyrazino[1,2-a]pyrazine-2-carboxamide]
Ki [1]: 389 nM
Ki [2]: 383 nM
Ki [3]: 10.1 nM
Ki [4]: 39.6 nM

Cc1cc(-c2sc(NC(=O)N3CCN4C(=O)CCCC4C3)nc2-c2cccc(C#N)c2)cc(C)n1 (stereo not shown) [Example 6.43, N-[4-(3-Cyanophenyl)-5-(2,6-dimethyl-4-pyridyl)thiazol-2-yl]-6-oxo-3,4,7,8,9,9a-hexahydro-1H-pyrido[1,2-a]pyrazine-2-carboxamide]
Ki [1]: 175 nM
Ki [2]: 51 nM
Ki [3]: 1.12 nM
Ki [4]: 8.2 nM

Cc1cc(-c2sc(NC(=O)N3C[C@H]4COC[C@H]4C3)nc2-c2cccc(C#N)c2)cc(C)n1 [Example 6.49, (3aR,6aS)-N-[4-(3-Cyanophenyl)-5-(2,6-dimethyl-4-pyridyl)thiazol-2-yl]-1,3,3a,4,6,6a-hexahydrofuro[3,4-c]pyrrole-5-carboxamide]
Ki [1]: 324 nM
Ki [2]: 51 nM
Ki [3]: 1.27 nM
Ki [4]: 2.2 nM

Cc1cc(-c2sc(NC(=O)N3C[C@@H]4CNC(=O)[C@@H]4C3)nc2-c2cccc(C#N)c2)cc(C)n1 [Example 6.52, (3aS,6aS)-N-[4-(3-Cyanophenyl)-5-(2,6-dimethyl-4-pyridyl)thiazol-2-yl]-3-oxo-1,2,3a,4,6,6a-hexahydropyrrolo[3,4-c]pyrrole-5-carboxamide]
Ki [1]: 238 nM
Ki [2]: 120 nM
Ki [3]: 4.3 nM
Ki [4]: 8.6 nM

CCN1CCN(C(=O)Nc2nc(-c3cccc(C#N)c3)c(-c3cc(C)nc(C)c3)s2)CC1 [Example 6.60, N-[4-(3-Cyanophenyl)-5-(2,6-dimethyl-4-pyridyl)thiazol-2-yl]-4-ethyl-piperazine-1-carboxamide]
Ki [1]: 455 nM
Ki [2]: 185 nM
Ki [3]: 3.09 nM
Ki [4]: 6.2 nM

Cc1cc(-c2sc(NC(=O)N3CCC(C(=O)O)CC3)nc2-c2cccc(C#N)c2)cc(C)n1 [Example 6.62, 1-[[4-(3-Cyanophenyl)-5-(2,6-dimethyl-4-pyridyl)thiazol-2-yl]carbamoyl]piperidine-4-carboxylic acid]
Ki [1]: 358 nM
Ki [2]: 219 nM
Ki [3]: 35.7 nM
Ki [4]: 23.3 nM

Cc1cc(-c2sc(NC(=O)N3CC[C@H](C(=O)O)C3)nc2-c2cccc(C#N)c2)cc(C)n1 [Example 6.63, (3S)-1-[[4-(3-Cyanophenyl)-5-(2,6-dimethyl-4-pyridyl)thiazol-2-yl]carbamoyl]pyrrolidine-3-carboxylic acid]
Ki [1]: 200 nM
Ki [2]: 343 nM
Ki [3]: 34.3 nM
Ki [4]: 29.2 nM

Cc1cc(-c2sc(NC(=O)N3CC[C@@H](C(=O)O)C3)nc2-c2cccc(C#N)c2)cc(C)n1 [Example 6.65, (3R)-1-[[4-(3-Cyanophenyl)-5-(2,6-dimethyl-4-pyridyl)thiazol-2-yl]carbamoyl]pyrrolidine-3-carboxylic acid]
Ki [1]: 295 nM
Ki [2]: 185 nM
Ki [3]: 45.6 nM
Ki [4]: 17.3 nM

Cc1cc(-c2sc(NC(=O)N3CC(C(=O)O)C3)nc2-c2cccc(C#N)c2)cc(C)n1 [Example 6.70, 1-[[4-(3-Cyanophenyl)-5-(2,6-dimethyl-4-pyridyl)thiazol-2-yl]carbamoyl]azetidine-3-carboxylic acid]
Ki [1]: 192 nM
Ki [2]: 163 nM
Ki [3]: 9.59 nM
Ki [4]: 13.1 nM

Cc1cc(-c2sc(NC(=O)N3CCC4(CCN(C)C4=O)CC3)nc2-c2cccc(C#N)c2)cc(C)n1 [Example 6.77, N-[4-(3-Cyanophenyl)-5-(2,6-dimethyl-4-pyridyl)thiazol-2-yl]-2-methyl-1-oxo-2,8-diazaspiro[4.5]decane-8-carboxamide]
Ki [1]: 193 nM
Ki [2]: 133 nM
Ki [3]: 1.44 nM
Ki [4]: 5.4 nM

Cc1cc(-c2sc(NC(=O)N3CC[C@H]3C)nc2-c2cccc(C#N)c2)cc(C)n1 [Example 6.78, (2R)-N-[4-(3-Cyanophenyl)-5-(2,6-dimethyl-4-pyridyl)thiazol-2-yl]-2-methyl-azetidine-1-carboxamide]
Ki [1]: 37 nM
Ki [2]: 24 nM
Ki [3]: 0.67 nM
Ki [4]: 0.9 nM

Cc1cc(-c2sc(NC(=O)N3CCC4(CCOC4)C3)nc2-c2cccc(C#N)c2)cc(C)n1 (stereo not shown) [Example 6.80, N-[4-(3-Cyanophenyl)-5-(2,6-dimethyl-4-pyridyl)thiazol-2-yl]-2-oxa-7-azaspiro[4.4]nonane-7-carboxamide]
Ki [1]: 450 nM
Ki [2]: 130 nM
Ki [3]: 0.8 nM
Ki [4]: 2.4 nM

Cc1cc(-c2sc(NC(=O)N3CC[C@H]3C(C)(C)O)nc2-c2cccc(C#N)c2)cc(C)n1 [Example 6.82, (2S)-N-[4-(3-Cyanophenyl)-5-(2,6-dimethyl-4-pyridyl)thiazol-2-yl]-2-(1-hydroxy-1-methyl-ethyl)azetidine-1-carboxamide]
Ki [1]: 246 nM
Ki [2]: 116 nM
Ki [3]: 3.67 nM
Ki [4]: 5.1 nM

Cc1cc(-c2sc(NC(=O)N3CC[C@@H]3C(C)(C)O)nc2-c2cccc(C#N)c2)cc(C)n1 [Example 6.83, (2R)-N-[4-(3-Cyanophenyl)-5-(2,6-dimethyl-4-pyridyl)thiazol-2-yl]-2-(1-hydroxy-1-methyl-ethyl)azetidine-1-carboxamide]
Ki [1]: 294 nM
Ki [2]: 129 nM
Ki [3]: 67.6 nM
Ki [4]: 102 nM
